Results on six molecules are retold here after patent publication US8188105B2, “Therapeutic agent for inflammatory bowel disease comprising uracil derivative as active ingredient” (Taiho Pharmaceutical Co., Ltd., priority 2007, dated 2012).

Each structure is given as a SMILES string.

The assay concerns DSS-induced mouse colitis. The experiment in a line: Effect on improvement of pathological conditions in DSS-induced IBD model. On the set-up: DAI Score (MEANS ± SD): scale not given here. It is filed as in vivo, mice (C57BL/6N Jcl). The conditions noted are these: 2% DSS day 1 to day 7, drug 30 mg/kg/day day 0 to day 7; for Abnormal stool occurrence: mice with abnormal stool (loose stool, diarrhea, blood in stool) counted on day 8, n=6 per group, control 6, non-treatment 0; for DAI Score (MEANS ± SD): DAI scores per Table 1 (body weight loss, stool hardness, fecal occult blood), day 8, control 5.3 ± 2.1. On the procedure: This test was performed in accordance with the method described in PEDIATRIC RESEARCH, Vol. 53, No. 1, 143-147, 2003. […] Dextran sulfate sodium (hereinafter abbreviated as “DSS,” product of Wako Pure Chemical Industries, Ltd.) was dissolved in purified water to 2% w/v, and the solution was fed ad libitum to the mice for seven days through a liquid-feed bottle (day 1 to day 7), to thereby establish ulcerative colitis models. The test groups included a drug-non-administration group (control), and a uracil derivative (1)-administration (30 mg/kg/day) group. A non-treatment group was provided through feeding purified water instead of 2% aqueous DSS solution. The drug was administered for eight days from one day before start of feeding 2% aqueous DSS solution (i.e., from day 0 to day 7). The improvement effect was determined on the day following the final drug administration day (on day 8) by counting occurrence of abnormal stools (loose stool, diarrhea, and visual observation of presence of blood in stool).

`CNCc1[nH]c(=O)[nH]c(=O)c1Cl` [Compound 1, 5-chloro-6-(methylaminomethyl)uracil] returned an Abnormal stool occurrence of 4.
Take `O=c1[nH]c(CN2CCCC2)c(Br)c(=O)[nH]1` [Compound 6, 5-bromo-6-(1-pyrrolidinylmethyl)uracil]: the “DAI Score (MEANS ± SD)” value was determined as 0.22 ± 0.27 and the Abnormal stool occurrence came to 2.
Molecule `O=c1[nH]c(CN2CCCC2)c(Cl)c(=O)[nH]1` [Compound 2, 5-chloro-6-(1-pyrrolidinylmethyl)uracil] came in with an Abnormal stool occurrence of 3.
`CN(CCO)Cc1[nH]c(=O)[nH]c(=O)c1Cl` [Compound 3, 5-chloro-6-((N-(2-hydroxyethyl)-N-methylamino)methyl)uracil] registered an Abnormal stool occurrence of 3.
For the molecule `N=C1NCCN1Cc1[nH]c(=O)[nH]c(=O)c1Cl` [Compound 5, 5-chloro-6-(1-(2-iminoimidazolidinyl)methyl)uracil], the “DAI Score (MEANS ± SD)” value turned out to be 0.28 ± 0.25 and the Abnormal stool occurrence turned out to be 0.
For `Cl.O=c1[nH]c(CSc2nnc[nH]2)c(Cl)c(=O)[nH]1` [Compound 4, 5-chloro-6-(1,2,4-triazole-3-thiomethyl)uracil hydrochloride salt] the same measures were 0.22 ± 0.27 and 0.
